From patent US20180327367A1, “MACROCYCLIC BROAD SPECTRUM ANTIBIOTICS” (priority 2015, published 2018)
pIC50: −log10 of the molar value. In brackets after ≈: the same amount, converted by molar mass. Where two headings read alike, the source gives them in different places.

Legend:
[1] = system: Methicillin Resistant Staphylococcus aureus strain USA 300, NRS384; test: Minimum inhibitory concentration, broth micro-dilution (CLSI), S. aureus; format: cell-based; details: Staphylococcus aureus, MRSA / NRS 384 / USA300, 22 h, 35° C., 22 hours
Procedure, shortened: (§1)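 Ten-point 2-fold series began at 4 μg/mL in protocol 2 and 0.5 μg/mL in protocol 3, in cation-adjusted MHB plus 0.002% Tween-80. Bacteria added to OD600 0.0005 final and incubated at 35° C for 22 hours per CLSI microdilution.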

[2] = system: Escherichia coli MC4100 harboring the IMP4213 (E. coli IMP); test: microbe, parasite or virus in culture; format: cell-based; details: Escherichia coli, 22 h, read-out: MIC (μg/mL) E. coli IMP, E. coli MC4100 IMP4213, increased outer-membrane permeability; 35° C., 22 hours
Procedure, shortened: as §1

[3] = system: Escherichia coli ATCC 25922; test: Minimum inhibitory concentration, broth micro-dilution (CLSI), E. coli; format: cell-based; details: Escherichia coli, ATCC25922, 22 h, 35° C., 22 hours
[4] = target: T1, SpsB (Staphylococcus aureus signal peptidase) (Staphylococcus aureus, UniProt P0A070); test: cell-based; format: biochemical; details: SpsB IC50, whole-cell S. aureus (USA300 background, overexpressing SpsB) as SpsB source; fluorogenic peptide substrate, kinetic read 30 min
T1 construct: This assay uses a suspension of Staphylococcus aureus cells as a source of SpsB instead of recombinant SpsB protein; endogenous in cells; host or cells: S. aureus, USA300 background, overexpressing SpsB (whole-cell suspension from frozen pellets)
T1 sequence (P0A070 whole entry): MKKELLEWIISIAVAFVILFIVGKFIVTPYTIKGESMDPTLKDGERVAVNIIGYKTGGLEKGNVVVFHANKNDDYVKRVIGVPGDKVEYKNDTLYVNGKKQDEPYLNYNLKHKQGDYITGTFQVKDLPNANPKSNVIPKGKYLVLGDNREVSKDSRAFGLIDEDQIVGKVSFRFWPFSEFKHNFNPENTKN
Procedure, shortened: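 Cleavage of an internally quenched (Dabcyl)βAla-KPAKAAE(Edans) peptide, added as 20 μM solution mixed 1:1 with cells, was followed for 30 min at 340/490 nm. SpsB came from a suspension of SpsB-overexpressing USA300 S. aureus in Tween-80-containing PBS buffer. Slopes plotted against 3-fold compound dilutions gave IC50.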

[5] = MRSA USA 300 NRS384, read-out: MIC (μg/mL) S. aureus
[6] = E. coli ATCC 25922, read-out: MIC (μg/mL) E. coli

| SMILES | MIC [1, 5] | MIC [2] | MIC [3, 6] | pIC50 [4] | MIC ([1]; read-out: MIC (μg/mL) S. aureus, MRSA USA 300 NRS384) | MIC ([3]; read-out: MIC (μg/mL) E. coli, E. coli ATCC 25922) |
| --- | --- | --- | --- | --- | --- | --- |
| CCCCc1ccc(C(=O)N[C@@H](CCC(N)=O)C(=O)N(C)[C@@H]2C(=O)N[C@@H](C)C(=O)N[C@H](C(=O)NCC#N)Cc3ccc(OCCN)c(c3)-c3cc2ccc3OCCN)c(C)c1 [Compound 245] | 1 µg/mL (≈ 1.19 µM) | 0.38 µg/mL (≈ 0.452 µM) | > 64 µg/mL | 8.20 |  |  |
| CCCCCCCC(=O)c1ccc(C(=O)N[C@@H](CCN)C(=O)N(C)[C@@H]2C(=O)N[C@@H](C)C(=O)N[C@H](C(=O)NCC#N)Cc3ccc(OCCN)c(c3)-c3cc2ccc3OCCN)c(Cl)c1 [Compound 413] | 0.031 µg/mL (≈ 0.0343 µM) | 0.0078 µg/mL (≈ 0.00864 µM) | 0.25 µg/mL (≈ 0.277 µM) | 9.06 |  |  |
| CCCC(C)(C)COc1ccc(C(=O)N[C@@H](CCN)C(=O)N(C)[C@@H]2C(=O)N[C@@H](C)C(=O)N[C@H](C(=O)NCC#N)Cc3ccc(OCCN)c(c3)-c3cc2ccc3OCCN)c(C)c1 [Compound 288] | 0.063 µg/mL (≈ 0.0724 µM) | 0.0078 µg/mL (≈ 0.00896 µM) | 0.25 µg/mL (≈ 0.287 µM) | 8.96 |  |  |
| CCCCCCCCc1ccc(C(=O)N[C@@H](CCN)C(=O)N(C)[C@@H]2C(=O)N[C@@H](C)C(=O)N[C@H](C(=O)NCC#N)Cc3ccc(OCCN)c(c3)-c3cc2ccc3OCCN)c(S(C)(=O)=O)c1 [Compound 212] | 0.031 µg/mL (≈ 0.0333 µM) | 0.047 µg/mL (≈ 0.0504 µM) | 2 µg/mL (≈ 2.15 µM) | 9.21 |  |  |
| CCCCCCc1ccc(C(=O)N[C@@H](CCN)C(=O)N(C)[C@@H]2C(=O)N[C@@H](C)C(=O)N[C@H](C(=O)NCC#N)Cc3ccc(OCCN)c(c3)-c3cc2ccc3OCCN)cc1 [Compound 195] | 0.063 µg/mL (≈ 0.0763 µM) | 0.0078 µg/mL (≈ 0.00944 µM) | 0.5 µg/mL (≈ 0.605 µM) | 8.85 |  |  |
| Cc1cc(C2CCCCCC2)ccc1C(=O)N[C@@H](CCN)C(=O)N(C)[C@@H]1C(=O)N[C@@H](C)C(=O)N[C@H](C(=O)NCC#N)Cc2ccc(OCCN)c(c2)-c2cc1ccc2OCCN [Compound 436] | 0.047 µg/mL (≈ 0.0552 µM) | 0.0078 µg/mL (≈ 0.00915 µM) | 0.38 µg/mL (≈ 0.446 µM) | 9.11 |  |  |
| Cc1cc(C#Cc2ccccc2)ccc1C(=O)N[C@@H](CCN)C(=O)N(C)[C@@H]1C(=O)N[C@@H](C)C(=O)N[C@H](C(=O)NCC#N)Cc2ccc(OCCN)c(c2)-c2cc1ccc2OCCN [Compound 425] | 0.047 µg/mL (≈ 0.0549 µM) | 0.018 µg/mL (≈ 0.021 µM) | 0.63 µg/mL (≈ 0.736 µM) | 8.96 |  |  |
| CCCCc1ccc(-c2ccc(C(=O)N[C@@H](CCCCN)C(=O)N(C)[C@@H]3C(=O)N[C@@H](C)C(=O)N[C@H](C(=O)NC4(C#N)CC4)Cc4ccc(OCCN)c(c4)-c4cc3ccc4OCCN)cc2)cc1 [Compound 494] | 1 µg/mL (≈ 1.08 µM) | 0.5 µg/mL (≈ 0.539 µM) | 16 µg/mL (≈ 17.2 µM) | 8.68 |  |  |
| C[C@@H]1NC(=O)[C@@H](N(C)C(=O)[C@H](CCCCN)NC(=O)c2ccc(-c3cc(Cl)cc(Cl)c3)cc2)c2ccc(OCCN)c(c2)-c2cc(ccc2OCCN)C[C@@H](C(=O)NCC#N)NC1=O [Compound 111] |  | 0.13 µg/mL (≈ 0.142 µM) |  | 9.00 | 0.13 µg/mL (≈ 0.142 µM) | 8 µg/mL (≈ 8.74 µM) |
| CCCCCCCCOc1ccc(C(=O)N[C@@H](CCN)C(=O)N(C)[C@@H]2C(=O)N[C@@H](C)C(=O)N[C@H](C(=O)NCC#N)Cc3ccc(OCCN)c(c3)-c3cc2ccc3OCCN)c(Cl)c1 [Compound 272] | 0.047 µg/mL (≈ 0.052 µM) | 0.0078 µg/mL (≈ 0.00862 µM) | 0.13 µg/mL (≈ 0.144 µM) | 9.15 |  |  |
| Cc1cc(-n2cc(CC(C)C)cn2)ccc1C(=O)N[C@@H](CCN)C(=O)N(C)[C@@H]1C(=O)N[C@@H](C)C(=O)N[C@H](C(=O)NCC#N)Cc2ccc(OCCN)c(c2)-c2cc1ccc2OCCN [Compound 445] | 0.094 µg/mL (≈ 0.107 µM) | 0.016 µg/mL (≈ 0.0182 µM) | 1 µg/mL (≈ 1.14 µM) | 9.00 |  |  |
| CCCCCCc1ccc(C(=O)N[C@@H](CC(N)=O)C(=O)N(C)[C@@H]2C(=O)N[C@@H](C)C(=O)N[C@H](C(=O)NCC#N)Cc3ccc(OCCN)c(c3)-c3cc2ccc3OCCN)c(C)c1 [Compound 237] | 0.13 µg/mL (≈ 0.152 µM) | 0.094 µg/mL (≈ 0.11 µM) | 16 µg/mL (≈ 18.7 µM) | 8.96 |  |  |
| CCCCCCCOc1cc(C)c(C(=O)N[C@@H](CCN)C(=O)N(C)[C@@H]2C(=O)N[C@@H](C)C(=O)N[C@H](C(=O)NCC#N)Cc3ccc(OCCN)c(c3)-c3cc2ccc3OCCN)c(Cl)c1 [Compound 299] | 0.094 µg/mL (≈ 0.104 µM) | 0.016 µg/mL (≈ 0.0177 µM) | 0.5 µg/mL (≈ 0.553 µM) | 8.96 |  |  |
| CCCCCCCc1cc(F)c(C(=O)N[C@@H](CCN)C(=O)N(C)[C@@H]2C(=O)N[C@@H](C)C(=O)N[C@H](C(=O)NCC#N)Cc3ccc(OCCN)c(c3)-c3cc2ccc3OCCN)c(Cl)c1 [Compound 437] | 0.063 µg/mL (≈ 0.0706 µM) | 0.0078 µg/mL (≈ 0.00874 µM) | 0.25 µg/mL (≈ 0.28 µM) | 9.05 |  |  |
